Consider 1 compound from patent US10961198B2, “Farnesoid X receptor agonists and uses thereof” (Metacrine, Inc., priority 2017, dated 2021).

The target in this test is hFXR (Homo sapiens (Human), UniProt Q96RI1). The experiment in a line: In Vitro FXR Assay (TK). The conditions noted are these: CV-1 cells transfected with hFXR, hRXR, TK-ECRE-luc and pCMX-YFP; incubated 18 hrs; luminescence; maximum efficacy <25% of the Fexarmine control classified as '+'. The test is classed as cell-based. An outline of the steps:
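Luminescence from a TK-ECRE-luc reporter was read after 18 h of compound exposure in CV-1 cells. These cells were grown in charcoal-stripped FBS medium and transiently transfected with hFXR, hRXR and YFP expression plasmids.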

hFXR, sequence (Q96RI1 whole entry): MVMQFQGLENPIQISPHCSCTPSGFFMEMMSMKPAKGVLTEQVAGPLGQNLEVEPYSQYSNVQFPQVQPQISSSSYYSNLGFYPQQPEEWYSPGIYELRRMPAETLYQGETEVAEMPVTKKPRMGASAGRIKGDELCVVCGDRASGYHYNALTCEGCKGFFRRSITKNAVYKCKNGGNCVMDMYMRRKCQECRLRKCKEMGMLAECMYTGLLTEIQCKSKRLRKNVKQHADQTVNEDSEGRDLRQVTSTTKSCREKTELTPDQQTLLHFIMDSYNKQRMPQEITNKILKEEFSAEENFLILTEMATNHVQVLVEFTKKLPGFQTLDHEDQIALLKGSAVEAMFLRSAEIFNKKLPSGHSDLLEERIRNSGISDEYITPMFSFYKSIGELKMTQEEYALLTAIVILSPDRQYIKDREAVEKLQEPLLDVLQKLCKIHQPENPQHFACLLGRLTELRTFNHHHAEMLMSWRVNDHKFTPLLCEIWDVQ
hFXR, sequence (P19793 whole entry partner): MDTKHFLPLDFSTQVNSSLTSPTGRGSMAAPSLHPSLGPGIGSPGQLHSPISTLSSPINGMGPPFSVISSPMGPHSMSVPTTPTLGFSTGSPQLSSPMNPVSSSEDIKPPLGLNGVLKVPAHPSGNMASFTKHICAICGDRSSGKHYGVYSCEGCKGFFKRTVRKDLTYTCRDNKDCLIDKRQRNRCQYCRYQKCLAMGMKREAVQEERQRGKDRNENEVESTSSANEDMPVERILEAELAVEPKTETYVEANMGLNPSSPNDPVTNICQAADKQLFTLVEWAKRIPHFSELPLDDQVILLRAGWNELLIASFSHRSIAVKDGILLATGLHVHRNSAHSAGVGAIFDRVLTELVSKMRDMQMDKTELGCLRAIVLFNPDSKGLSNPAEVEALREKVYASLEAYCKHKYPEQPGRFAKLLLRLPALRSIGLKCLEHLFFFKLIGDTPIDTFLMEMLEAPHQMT

`Cc1cc([C@H]2CC[C@H](CN(c3cccc(-c4cnn(C5CC5)c4)c3)C(=O)[C@H]3CC[C@H](O)CC3)CC2)ccc1O` [Compound 8, trans-N-(3-(1-Cyclopropyl-1H-pyrazol-4-yl)phenyl)-4-hydroxy-N-((trans-4-(4-hydroxy-3-methylphenyl)cyclohexyl)methyl)cyclohexanecarboxamide] came in with a 50% effective concentration (EC50) of 0.25 to 1 µM.
